In ChEMBL document CHEMBL2074105, “The potential for an interaction between MRP2 (ABCC2) and various therapeutic agents: probenecid as a candidate inhibitor of the biliary excretion of irinotecan metabolites” (Drug Metabol Pharmacokin, 2002):

Assays:
[1] = molecular target: T1, ATP-binding cassette sub-family C member 2 (Rattus norvegicus, UniProt Q63120); assay: TP_TRANSPORTER: inhibition of DNP-SG uptake in bile canalicular membrane vesicles from SD rat; format: functional, cell membranes, Sprague-Dawley, Bile canalicular membrane vesicle
[2] = molecular target: T1, ATP-binding cassette sub-family C member 2; assay: TP_TRANSPORTER: inhibition of SN-38 uptake in bile canalicular membrane vesicles from SD rat; format: functional, cell membranes, Sprague-Dawley, Bile canalicular membrane vesicle
[3] = molecular target: ATP-binding cassette sub-family C member 2 (Rattus norvegicus) (UniProt Q63120); assay: TP_TRANSPORTER: inhibition of SN-38 uptake in bile canalicular membrane vesicles
[4] = molecular target: T1, ATP-binding cassette sub-family C member 2; assay: TP_TRANSPORTER: inhibition of DNP-SG uptake in blie canalicular membrane vesicle from SD rat; format: functional, cell membranes, Sprague-Dawley, Bile canalicular membrane vesicle

T1 sequence (Q63120 whole entry): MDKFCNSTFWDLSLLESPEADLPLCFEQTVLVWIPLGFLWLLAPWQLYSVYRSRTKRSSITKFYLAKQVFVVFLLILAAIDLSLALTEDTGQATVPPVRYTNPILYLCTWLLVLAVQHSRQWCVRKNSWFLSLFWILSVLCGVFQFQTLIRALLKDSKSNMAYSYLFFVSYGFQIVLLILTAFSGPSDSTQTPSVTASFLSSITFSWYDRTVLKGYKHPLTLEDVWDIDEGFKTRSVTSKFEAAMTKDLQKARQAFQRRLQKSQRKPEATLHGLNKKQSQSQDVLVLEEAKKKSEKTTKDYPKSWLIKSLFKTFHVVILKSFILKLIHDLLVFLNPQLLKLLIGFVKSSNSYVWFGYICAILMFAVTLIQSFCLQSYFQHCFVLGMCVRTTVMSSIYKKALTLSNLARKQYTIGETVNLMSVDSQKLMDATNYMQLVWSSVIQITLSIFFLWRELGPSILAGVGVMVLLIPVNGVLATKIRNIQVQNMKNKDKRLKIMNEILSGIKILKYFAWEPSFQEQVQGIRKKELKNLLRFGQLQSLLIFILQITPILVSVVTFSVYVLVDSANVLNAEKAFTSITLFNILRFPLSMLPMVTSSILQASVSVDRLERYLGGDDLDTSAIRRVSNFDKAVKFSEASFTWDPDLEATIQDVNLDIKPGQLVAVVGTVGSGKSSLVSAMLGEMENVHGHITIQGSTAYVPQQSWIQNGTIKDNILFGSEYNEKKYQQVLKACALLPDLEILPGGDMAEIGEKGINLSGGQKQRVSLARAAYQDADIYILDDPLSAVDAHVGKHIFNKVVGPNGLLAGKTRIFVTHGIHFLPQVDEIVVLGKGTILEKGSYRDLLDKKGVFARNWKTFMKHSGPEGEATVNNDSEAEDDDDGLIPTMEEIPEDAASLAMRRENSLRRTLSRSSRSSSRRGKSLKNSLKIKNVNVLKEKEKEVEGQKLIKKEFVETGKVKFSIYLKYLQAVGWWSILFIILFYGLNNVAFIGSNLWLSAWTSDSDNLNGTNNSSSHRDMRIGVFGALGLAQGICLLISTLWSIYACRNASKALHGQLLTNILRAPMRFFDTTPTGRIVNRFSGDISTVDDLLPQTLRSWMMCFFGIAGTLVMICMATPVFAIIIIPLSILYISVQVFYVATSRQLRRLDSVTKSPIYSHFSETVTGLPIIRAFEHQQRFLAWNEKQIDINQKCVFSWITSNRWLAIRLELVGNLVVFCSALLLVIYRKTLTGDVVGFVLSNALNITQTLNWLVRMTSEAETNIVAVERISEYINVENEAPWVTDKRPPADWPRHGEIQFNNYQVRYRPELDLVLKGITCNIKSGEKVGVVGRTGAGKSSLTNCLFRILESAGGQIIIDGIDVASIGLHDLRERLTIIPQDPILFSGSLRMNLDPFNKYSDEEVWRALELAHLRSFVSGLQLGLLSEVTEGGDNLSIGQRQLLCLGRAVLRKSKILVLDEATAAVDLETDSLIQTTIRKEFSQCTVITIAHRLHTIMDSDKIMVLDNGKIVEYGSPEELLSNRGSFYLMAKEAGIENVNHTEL
Chain of ATP-binding cassette sub-family C member 2 (Rattus norvegicus) (Q63120 whole entry, looked up): as the sequence (Q63120 whole entry) above

Compound	Ki [1] [µM]	also measured
O=C1OC(c2ccc(O)c(S(=O)(=O)O)c2)(c2ccc(O)c(S(=O)(=O)O)c2)c2c(Br)c(Br)c(Br)c(Br)c21 [SULFOBROMOPHTHALEIN SODIUM]	2.18	Ki [2]: 2.87 µM
CO/N=C(\C(=O)N[C@@H]1C(=O)N2C(C(=O)O)=C(CSc3nc(C)c(CC(=O)O)s3)CS[C@H]12)c1csc(N)n1 [CEFODIZIME]	10	–
N[C@@H](CCC(=O)N[C@@H](CSc1c(Br)c(Br)c2c(c1Br)C(=O)OC2(c1ccc(O)c(S(=O)(=O)O)c1)c1ccc(O)c(S(=O)(=O)O)c1)C(=O)NCC(=O)O)C(=O)O	0.0461	–
O=C(O)[C@H]1O[C@@H](Oc2cc3oc(-c4ccccc4)cc(=O)c3c(O)c2O)[C@H](O)[C@@H](O)[C@@H]1O [BAICALIN]	7.95	–
CC1(C)[C@@H](O[C@H]2O[C@H](C(=O)O)[C@@H](O)[C@H](O)[C@H]2O[C@@H]2O[C@H](C(=O)O)[C@@H](O)[C@H](O)[C@H]2O)CC[C@]2(C)[C@H]3C(=O)C=C4[C@@H]5C[C@@](C)(C(=O)O)CC[C@]5(C)CC[C@@]4(C)[C@]3(C)CC[C@@H]12 [GLYCYRRHIZIN]	0.84	Ki [2]: 1.91 µM
CCCN(CCC)S(=O)(=O)c1ccc(C(=O)O)cc1 [PROBENECID]	–	Ki [3]: 42.2 µM; Ki [4]: 44.6 µM
CREMOPHOR EL	281	–

More lines, main results first:

Ki [1] [µM]	Compound	also measured
41.1	O=C(Nc1cccc2c(=O)cc(-c3nnn[nH]3)oc12)c1ccc(OCCCCc2ccccc2)cc1 [PRANLUKAST]	–
1	CC1(C)C(/C=C/C=C/C=C/C=C2\N(CCCCS(=O)(=O)O)c3ccc4ccccc4c3C2(C)C)=[N+](CCCCS(=O)(=O)[O-])c2ccc3ccccc3c21 [INDOCYANINE GREEN]	–
132	Nc1nc2c(c(=O)[nH]1)N(C=O)C(CNc1ccc(C(=O)N[C@@H](CCC(=O)O)C(=O)O)cc1)CN2 (stereo partly drawn) [LEUCOVORIN]	–
